In patent US20190175744A1, “INSULIN-INCRETIN CONJUGATES” (Merck Sharp & Dohme Corp., priority 2016, published 2019):
pEC50: −log10 of the molar value. Each block holds one compound with its values, some of them ahead of it.

Key:
Insulin Receptor = molecular target: T1, Insulin Receptor (Sus scrofa, UniProt F1SCL0); experiment: Insulin Receptor Binding Assay, minipig; details: Table 7, control molecules, minipig IR
T1 construct: expressed in transfected cells
Experimental: Method 1 IR binding assay is a whole cell binding method using CHO cells overexpressing human IR(B). The cells are grown in F12 media containing 10% FBS and antibiotics (G418, Penicillin/Strepavidin), plated at 40,000 cells/well in a 96-well tissue culture plate for at least eight hours. The cells are then serum starved by switching to DMEM media containing 1% BSA (insulin-free) overnight. The cells are washed twice with chilled DMEM media containing 1% BSA (insulin-free) followed by the addition of conjugate at appropriate concentration in 90 μL of the same media. The cells are incubated on ice for 60 minutes.
Method 2 IR binding assay is run in a scintillation proximity assay (SPA) in 384-well format using cell membranes prepared from CHO cells overexpressing human IR(B) grown in F12 media containing 10% FBS and antibiotics (G418, Penicillin/Strepavidin). Cell membranes are prepared in 50 mM Tris buffer, pH 7.8 containing 5 mM MgCl2. The assay buffer contains 50 mM Tris buffer, pH 7.5, 150 mM NaCl, 1 mM CaCl2, 5 mM MgCl2, 0.1% BSA and protease inhibitors (Complete-Mini-Roche). Cell membranes are added to WGA PVT PEI SPA beads (5 mg/mL final concentration) followed by addition of conjugate at appropriate concentrations.

human IR = molecular target: T2, human IR (Homo sapiens, UniProt P06213); experiment: Insulin Receptor Phosphorylation (pAkt) Assay, CHO cells overexpressing human IR; assay type: cell-based; details: Table 7, control molecules, read-out: Insulin Receptor pAK Assay EC50 Human
T2 construct: expressed in transfected cells; host or cells: CHO cells (G418 selection)
T2 sequence (P06213 28-758 limits assumed): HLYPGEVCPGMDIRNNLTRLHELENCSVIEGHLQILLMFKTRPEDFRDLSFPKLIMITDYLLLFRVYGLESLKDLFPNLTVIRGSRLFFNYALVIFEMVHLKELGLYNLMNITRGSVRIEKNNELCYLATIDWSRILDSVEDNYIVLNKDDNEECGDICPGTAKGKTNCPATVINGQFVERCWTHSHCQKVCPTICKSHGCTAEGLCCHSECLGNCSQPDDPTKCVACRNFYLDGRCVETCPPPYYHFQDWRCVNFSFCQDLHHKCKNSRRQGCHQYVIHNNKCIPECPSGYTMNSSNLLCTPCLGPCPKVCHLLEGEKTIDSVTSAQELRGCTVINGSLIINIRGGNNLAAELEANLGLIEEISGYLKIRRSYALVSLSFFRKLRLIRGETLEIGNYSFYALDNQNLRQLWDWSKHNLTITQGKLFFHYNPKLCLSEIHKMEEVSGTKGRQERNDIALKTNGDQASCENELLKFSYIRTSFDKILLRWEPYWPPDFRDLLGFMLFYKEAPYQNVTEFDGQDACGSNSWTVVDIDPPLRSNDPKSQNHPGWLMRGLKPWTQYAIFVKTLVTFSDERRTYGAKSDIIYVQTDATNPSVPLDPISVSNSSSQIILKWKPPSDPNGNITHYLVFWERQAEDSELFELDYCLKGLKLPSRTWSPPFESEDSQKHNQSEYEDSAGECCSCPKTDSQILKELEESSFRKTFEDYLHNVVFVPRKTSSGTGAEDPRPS
T2 sequence (P06213 763-1382 limits assumed): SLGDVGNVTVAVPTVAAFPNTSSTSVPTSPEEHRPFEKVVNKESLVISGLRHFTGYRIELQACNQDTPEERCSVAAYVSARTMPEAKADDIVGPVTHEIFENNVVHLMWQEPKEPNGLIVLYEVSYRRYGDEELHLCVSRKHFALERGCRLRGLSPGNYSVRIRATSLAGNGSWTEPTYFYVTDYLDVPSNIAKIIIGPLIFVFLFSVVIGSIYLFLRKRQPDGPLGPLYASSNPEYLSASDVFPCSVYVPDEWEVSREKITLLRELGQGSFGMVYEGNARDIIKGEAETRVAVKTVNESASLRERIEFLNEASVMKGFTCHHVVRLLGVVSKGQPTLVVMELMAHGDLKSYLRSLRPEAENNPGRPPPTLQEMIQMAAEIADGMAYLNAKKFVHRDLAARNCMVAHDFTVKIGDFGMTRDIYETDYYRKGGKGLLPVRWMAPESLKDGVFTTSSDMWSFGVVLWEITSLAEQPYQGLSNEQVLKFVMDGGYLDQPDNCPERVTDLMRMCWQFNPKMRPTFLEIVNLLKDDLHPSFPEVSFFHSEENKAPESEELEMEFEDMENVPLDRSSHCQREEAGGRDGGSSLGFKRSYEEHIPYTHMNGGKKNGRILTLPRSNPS

minipig IR = molecular target: T3, minipig IR (Sus scrofa, UniProt F1SCL0); experiment: Insulin Receptor Phosphorylation (pAkt) Assay, CHO cells overexpressing minipig IR; assay type: cell-based; details: Table 7, control molecules, read-out: Insulin Receptor pAK Assay EC50 Minipig
T3 construct: expressed in transfected cells; host or cells: CHO cells (G418 selection)
T3 sequence (F1SCL0 28-1382): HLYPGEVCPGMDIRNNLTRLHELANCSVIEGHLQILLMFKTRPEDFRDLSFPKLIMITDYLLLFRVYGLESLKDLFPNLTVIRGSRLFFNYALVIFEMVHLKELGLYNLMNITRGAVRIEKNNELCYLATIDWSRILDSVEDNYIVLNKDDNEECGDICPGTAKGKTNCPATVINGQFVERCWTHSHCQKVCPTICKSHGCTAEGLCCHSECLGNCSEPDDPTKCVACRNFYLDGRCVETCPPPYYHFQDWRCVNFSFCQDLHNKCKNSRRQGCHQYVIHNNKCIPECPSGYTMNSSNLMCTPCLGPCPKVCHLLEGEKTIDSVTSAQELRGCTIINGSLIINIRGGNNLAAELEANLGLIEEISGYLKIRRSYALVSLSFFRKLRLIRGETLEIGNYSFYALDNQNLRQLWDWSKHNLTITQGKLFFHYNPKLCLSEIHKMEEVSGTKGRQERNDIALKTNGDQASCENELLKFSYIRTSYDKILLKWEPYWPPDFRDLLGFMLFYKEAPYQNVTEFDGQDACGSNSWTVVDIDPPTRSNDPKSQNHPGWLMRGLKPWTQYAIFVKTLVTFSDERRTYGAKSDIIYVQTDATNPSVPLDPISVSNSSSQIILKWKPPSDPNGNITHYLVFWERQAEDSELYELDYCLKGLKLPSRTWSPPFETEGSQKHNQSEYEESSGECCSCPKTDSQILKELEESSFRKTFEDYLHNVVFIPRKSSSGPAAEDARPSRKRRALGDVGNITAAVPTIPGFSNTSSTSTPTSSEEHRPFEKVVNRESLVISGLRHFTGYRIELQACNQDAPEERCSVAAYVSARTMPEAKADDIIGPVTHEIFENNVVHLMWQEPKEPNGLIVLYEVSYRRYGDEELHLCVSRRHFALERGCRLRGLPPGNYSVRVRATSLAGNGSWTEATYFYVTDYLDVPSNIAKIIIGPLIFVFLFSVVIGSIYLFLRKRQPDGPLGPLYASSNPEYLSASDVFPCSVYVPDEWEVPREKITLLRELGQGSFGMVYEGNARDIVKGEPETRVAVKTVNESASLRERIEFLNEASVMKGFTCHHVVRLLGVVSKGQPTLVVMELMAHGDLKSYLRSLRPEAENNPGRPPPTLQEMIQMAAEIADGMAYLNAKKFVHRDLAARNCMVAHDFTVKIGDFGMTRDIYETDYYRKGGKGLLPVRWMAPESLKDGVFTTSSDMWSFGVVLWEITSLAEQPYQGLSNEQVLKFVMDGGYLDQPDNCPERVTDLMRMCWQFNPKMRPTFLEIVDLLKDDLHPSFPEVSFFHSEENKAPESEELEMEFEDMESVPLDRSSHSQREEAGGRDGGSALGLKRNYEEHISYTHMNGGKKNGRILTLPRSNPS

human GLP1R = human GLP1R (Homo sapiens, UniProt P43220); experiment: cAMP activity assay, cells expressing human GLP1R; assay type: cell-based; details: Table 5, incretin peptides, cAMP; read-out: hGLP1R EC50
Sequence of human GLP1R (P43220 24-463): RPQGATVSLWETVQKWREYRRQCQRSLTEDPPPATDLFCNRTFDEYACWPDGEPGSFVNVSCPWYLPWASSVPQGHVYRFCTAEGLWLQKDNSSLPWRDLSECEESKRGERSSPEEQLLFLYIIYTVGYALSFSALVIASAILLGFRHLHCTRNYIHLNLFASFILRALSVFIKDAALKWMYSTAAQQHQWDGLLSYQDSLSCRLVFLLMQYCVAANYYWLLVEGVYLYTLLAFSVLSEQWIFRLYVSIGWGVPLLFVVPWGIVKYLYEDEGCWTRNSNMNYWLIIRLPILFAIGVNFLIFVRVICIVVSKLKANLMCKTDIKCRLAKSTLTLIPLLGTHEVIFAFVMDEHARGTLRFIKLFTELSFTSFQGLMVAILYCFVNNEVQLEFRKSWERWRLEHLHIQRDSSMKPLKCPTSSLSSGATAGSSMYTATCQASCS

human GCGR = molecular target: T4, human GCGR (Homo sapiens, UniProt P47871); experiment: cAMP activity assay, cells expressing human GCGR; assay type: cell-based;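 note: cAMP production read by luminescence after one hour of peptide exposure at room temperature, EC50 from logistic curve fit, native glucagon and GLP-1 as control peptides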
T4 construct: expressed in transfected cells; grown with Blasticidin and Hygromycin
T4 sequence (P47871 26-477): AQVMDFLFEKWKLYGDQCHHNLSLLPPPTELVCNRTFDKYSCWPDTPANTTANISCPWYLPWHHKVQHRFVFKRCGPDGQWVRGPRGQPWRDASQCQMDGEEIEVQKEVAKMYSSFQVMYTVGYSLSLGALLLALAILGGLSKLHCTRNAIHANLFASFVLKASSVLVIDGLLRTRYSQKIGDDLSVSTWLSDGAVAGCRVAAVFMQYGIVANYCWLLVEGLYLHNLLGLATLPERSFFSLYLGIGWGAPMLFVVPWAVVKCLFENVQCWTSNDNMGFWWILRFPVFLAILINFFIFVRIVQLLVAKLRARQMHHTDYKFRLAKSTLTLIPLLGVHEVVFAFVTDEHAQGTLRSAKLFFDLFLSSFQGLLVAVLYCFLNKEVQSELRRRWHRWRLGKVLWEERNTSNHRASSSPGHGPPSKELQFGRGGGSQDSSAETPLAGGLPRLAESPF
Experimental: Activity of the incretin peptides or the conjugates at the Glucagon receptor (GCGR) and GLP-1 receptor (GLP1R) may be measured in a cAMP activity assay as follows.
Peptides are dissolved in 100% DMSO and serially diluted to generate 10 point titrations. The peptide solutions are then transferred into 384-well assay plates (150 nL/well). Assay ready frozen cells expressing human GLP1R or human GCGR are suspended in growth media consisting of DMEM medium (GIBCO), 10% FBS (GIBCO), 1×NEAA(GIBCO), 1×P/S (GIBCO), 10 μg/mL Blasticidin (GIBCO) and 200 μg/mL Hygromycin (GIBCO). […] The cell suspensions (15 μL) are then added to the assay plates containing the peptide solutions (30,000 cells/well for human GCGR; 10,000 cells/well for human GLP1R). The cells are incubated for one hour at room temperature in the dark.
Production of cAMP may be determined using HitHunterr cAMPXS kits (DiscoverX) following the manufacturer's protocol. The plates are incubated for overnight at room temperature in the dark. Luminescence may be measured using an EnVision Multilabel plate reader (Perkin Elmer). Native GLP-1 and Glucagon (Bachem) may be used as control peptides. EC50 values may be calculated using uses a 4 parameter logistic fit based on the Levenberg-Marquardt algorithm.

T1 sequence (F1SCL0 28-1382): as the sequence (F1SCL0 28-1382) above

pEC50 (Insulin Receptor): 8.07
Compound: Insulin degludec [ID]

pEC50 (human IR): 9.29 | pEC50 (minipig IR): 9.30
Compound: Insulin levemir [IL]

pEC50 (human GLP1R): 10.22 | pEC50 (human GCGR): 10.30 | GCGR/GLP1R ratio (human GCGR; Table 5, ratio of hGCGR EC50 to hGLP1R EC50): 0.8
Compound: CCCCCCCCCCCCCCCC(=O)N[C@@H](CCC(=O)N[C@@H](CCC(=O)NCCCC[C@H](NC(=O)[C@H](CC(=O)O)NC(=O)[C@H](CO)NC(=O)[C@@H](NC(=O)[C@H](Cc1ccccc1)NC(=O)[C@@H](NC(=O)CNC(=O)[C@H](CCC(N)=O)NC(=O)[C@@H](CO)NC(=O)[C@@H](N)Cc1c[nH]cn1)[C@@H](C)O)[C@@H](C)O)C(=O)N[C@@H](CO)C(=O)N[C@@H](CCCCN)C(=O)N[C@@H](Cc1ccc(O)cc1)C(=O)N[C@@H](CC(C)C)C(=O)N[C@@H](CC(=O)O)C(=O)N[C@@H](CCC(=O)O)C(=O)N[C@@H](CCCNC(=N)N)C(=O)N[C@@H](C)C(=O)N[C@@H](C)C(=O)N[C@@H](CCCCNC(=O)COCCOCCNC(=O)CCCCN=[N+]=[N-])C(=O)N[C@@H](CC(=O)O)C(=O)N[C@@H](Cc1ccccc1)C(=O)N[C@H](C(=O)N[C@@H](CCC(N)=O)C(=O)N[C@@H](Cc1c[nH]c2ccccc12)C(=O)N[C@@H](CC(C)C)C(=O)N[C@@H](CC(C)C)C(=O)N[C@@H](CC(=O)O)C(=O)N[C@H](C(N)=O)[C@@H](C)O)C(C)C)C(=O)O)C(=O)O [PEP16]
